Results from patent US12692247B2, “Phenyl- and pyridopyrazole derivatives as inhibitors of DDR1” (Redx Pharma Limited, priority 2021, dated 2026).

How the values were obtained:
Recombinant human DDR1 = molecular target: T1, Recombinant human DDR1 (Homo sapiens, UniProt Q08345); assay: LanthaScreen Eu Kinase Binding Assay, DDR1; conditions: recombinant human DDR1 (2.5 nM; aa440-876, GST tag), Kinase Tracer 178 5 nM, time-resolved fluorescence, at least two independent replicates; read-out: DDR1 pIC50 (converted)
T1 construct: Recombinant human DDR1 (2.5 nM; aa440-876 containing a GST tag)
Description: (§1) DDR1 and DDR2 Biochemical Assay Method
(§2) The capacity of compounds to bind to DDR1 and DDR2 was quantified using a LanthaScreen Eu Kinase Binding Assay. Recombinant human DDR1 (2.5 nM; aa440-876 containing a GST tag) and DDR2 (1.75 nM; aa427-855 containing a GST tag) were diluted in assay buffer (50 mM HEPES pH7.3, 10 mM MgCl2, 1 mM EGTA and 0.01% Tween) with various concentrations of compound in a 384-well plate and a volume of 5 uL. After a 30-minute incubation at room temperature, 2.5 uL of Eu-anti GST antibody (diluted to 1 nM in assay buffer) plus Kinase Tracer 178 (diluted in assay buffer to 5 nM for DDR1 and 10 nM for DDR2) were added to the plate. Following 60-minute incubation at room temperature, time-resolved fluorescence was measured on a BMG Labtech PHERAstar plate reader. DMSO (1%) and reference compound (1 μM) were used to generate the Max and Min assay signals, respectively. Data was analysed using a four-parameter logistic model to calculate IC50 values, with at least two independent replicates were performed for each compound.

Recombinant human DDR2 = molecular target: T2, Recombinant human DDR2 (Homo sapiens, UniProt Q16832); assay: LanthaScreen Eu Kinase Binding Assay, DDR2; conditions: recombinant human DDR2 (1.75 nM; aa427-855, GST tag), Kinase Tracer 178 10 nM, time-resolved fluorescence, at least two independent replicates; read-out: DDR2 pIC50 (converted)
T2 construct: DDR2 (1.75 nM; aa427-855 containing a GST tag)
T2 sequence (Q16832 427-855): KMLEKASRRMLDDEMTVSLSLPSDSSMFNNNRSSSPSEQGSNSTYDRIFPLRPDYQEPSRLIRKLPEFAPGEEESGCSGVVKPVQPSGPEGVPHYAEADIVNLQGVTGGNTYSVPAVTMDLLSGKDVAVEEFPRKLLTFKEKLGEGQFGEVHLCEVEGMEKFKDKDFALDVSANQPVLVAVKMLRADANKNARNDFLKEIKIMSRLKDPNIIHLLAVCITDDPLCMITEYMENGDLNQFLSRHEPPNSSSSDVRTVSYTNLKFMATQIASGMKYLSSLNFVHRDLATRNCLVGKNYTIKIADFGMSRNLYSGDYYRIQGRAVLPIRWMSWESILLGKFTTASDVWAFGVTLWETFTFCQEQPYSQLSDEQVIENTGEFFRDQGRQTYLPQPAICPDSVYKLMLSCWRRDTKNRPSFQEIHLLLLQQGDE
Description: as §1, §2

T1 sequence (Q08345 440-876 isoform Q08345-2): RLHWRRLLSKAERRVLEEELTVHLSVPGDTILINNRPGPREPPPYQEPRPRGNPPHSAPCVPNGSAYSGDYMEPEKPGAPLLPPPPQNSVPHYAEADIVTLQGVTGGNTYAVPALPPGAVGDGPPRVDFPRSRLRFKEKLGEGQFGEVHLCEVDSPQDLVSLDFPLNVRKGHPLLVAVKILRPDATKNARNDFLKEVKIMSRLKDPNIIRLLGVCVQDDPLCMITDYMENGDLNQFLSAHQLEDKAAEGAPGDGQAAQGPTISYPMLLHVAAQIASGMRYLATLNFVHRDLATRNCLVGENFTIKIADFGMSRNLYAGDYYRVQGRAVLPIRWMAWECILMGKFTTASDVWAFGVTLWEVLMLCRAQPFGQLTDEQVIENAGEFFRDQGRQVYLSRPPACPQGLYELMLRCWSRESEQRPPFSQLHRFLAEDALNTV

| IC50 (Recombinant human DDR1) [µM] | IC50 (Recombinant human DDR2) [µM] | SMILES |
| --- | --- | --- |
| 0.01 to 0.1 | 0.1 to 1 | Cn1ncc2cc(Nc3cccc4ccn(CC(=O)NC5(C(F)(F)F)CC5)c(=O)c34)ccc21 [Example 21, 2-[8-[(1-methylindazol-5-yl)amino]-1-oxo-2-isoquinolyl]-N-[1-(trifluoromethyl)cyclopropyl]acetamide] |
| 0.01 to 0.1 | 0.1 to 1 | CN(CC(F)(F)F)C(=O)Cn1ccc2cccc(Nc3ccc4c(cnn4C)c3)c2c1=O [Example 23, N-methyl-2-[8-[(1-methylindazol-5-yl)amino]-1-oxo-2-isoquinolyl]-N-(2,2,2-trifluoroethyl)acetamide] |
| 0.1 to 1 | ≥ 1 | Cn1ncc2cc(Nc3cccc4ccn(CC(=O)Nc5cccnc5)c(=O)c34)ccc21 [Example 24, 2-[8-[(1-methylindazol-5-yl)amino]-1-oxo-2-isoquinolyl]-N-(3-pyridyl)acetamide] |
| 0.1 to 1 | ≥ 1 | Cn1ncc2cc(Nc3cccc4ccn(CC(=O)Nc5cncnc5)c(=O)c34)ccc21 [Example 25, 2-[8-[(1-methylindazol-5-yl)amino]-1-oxo-2-isoquinolyl]-N-pyrimidin-5-yl-acetamide] |
| ≥ 1 | ≥ 1 | Cn1ncc2cc(Nc3cccc4ccn(CC(=O)Nc5ccncc5)c(=O)c34)ccc21 [Example 26, 2-[8-[(1-methylindazol-5-yl)amino]-1-oxo-2-isoquinolyl]-N-(4-pyridyl)acetamide] |
| < 0.01 | ≥ 1 | Cn1ncc2cc(Nc3cccc4ccn(CC(=O)Nc5ccc(C(F)(F)F)cc5)c(=O)c34)ccc21 [Example 30, 2-[8-[(1-methylindazol-5-yl)amino]-1-oxo-2-isoquinolyl]-N-[4-(trifluoromethyl)phenyl]acetamide] |
| < 0.01 | < 0.01 | Cn1ncc2cc(Nc3cccc4ccn(CC(=O)Nc5cncc(C(F)(F)F)c5)c(=O)c34)ccc21 [Example 31, 2-[8-[(1-methylindazol-5-yl)amino]-1-oxo-2-isoquinolyl]-N-[5-(trifluromethyl)-3-pyridyl]acetamide] |
| < 0.01 | 0.01 to 0.1 | CC(=O)c1cccc(NC(=O)Cn2ccc3cccc(Nc4ccc5c(cnn5C)c4)c3c2=O)c1 [Example 32, N-(3-acetylphenyl)-2-[8-[(1-methylindazol-5-yl)amino]-1-oxo-2-isoquinolyl]acetamide] |
| 0.01 to 0.1 | 0.1 to 1 | Cn1ncc2cc(Nc3cccc4ccn(CC(=O)NC(C5CC5)C(F)(F)F)c(=O)c34)ccc21 (centres unmarked) [Example 33, N-(1-cyclopropyl-2,2,2-trifluoro-ethly)-2-[8-[(1-methylindazol-5-yl)amino]-1-oxo-2-isoquinolyl]acetamide] |
| 0.1 to 1 | ≥ 1 | Cn1ccc(NC(=O)Cn2ccc3cccc(Nc4ccc5c(cnn5C)c4)c3c2=O)n1 [Example 34, 2-[8-[(1-methylindazol-5-yl)amino]-1-oxo-2-isoquinolyl]-N-(1-methylpyrazol-3-yl)acetamide] |
| 0.01 to 0.1 | 0.1 to 1 | Cn1ncc2cc(Nc3cccc4ccn(CC(=O)NC(c5ccccc5)C(F)(F)F)c(=O)c34)ccc21 (centres unmarked) [Example 35, 2-[8-[(1-methylindazol-5-yl)amino]-1-oxo-2-isoquinolyl]-N-(2,2,2-trifluoro-1-phenyl-ethyl)acetamide] |
| 0.01 to 0.1 | 0.1 to 1 | Cn1nccc1NC(=O)Cn1ccc2cccc(Nc3ccc4c(cnn4C)c3)c2c1=O [Example 36, 2-[8-[(1-methylindazol-5-yl)amino]-1-oxo-2-isoquinolyl]-N-(2-methylpyrazol-3-yl)acetamide] |
| < 0.01 | 0.01 to 0.1 | Cn1ncc2cc(Nc3cccc4ccn(CC(=O)Nc5cnoc5)c(=O)c34)ccc21 [Example 37, N-isoxazol-4-yl-2-[8-[(1-methylindazol-5-yl)amino]-1-oxo-2-isoquinolyl]acetamide] |
| < 0.01 | 0.01 to 0.1 | Cn1ncc2cc(Nc3cccc4ccn(CC(=O)Nc5cccc(C(C)(C)O)c5)c(=O)c34)ccc21 [Example 38, N-[3-(1-hydroxy-1-methyl-ethyl)phenyl]-2-[8-[(1-methylindazol-5-yl)amino]-1-oxo-2-isoquinolyl]acetamide] |
| 0.01 to 0.1 | ≥ 1 | Cn1ncc2cc(Nc3cccc4ccn(CC(=O)Nc5ccccc5)c(=O)c34)ccc21 [Example 39, 2-[8-[(1-methylindazol-5-yl)amino]-1-oxo-2-isoquinolyl]-N-phenyl-acetamide] |

Further lines, the compound ahead of its results:

| SMILES | IC50 (Recombinant human DDR1) [µM] | IC50 (Recombinant human DDR2) [µM] |
| --- | --- | --- |
| O=C(Cn1ccc2cccc(Nc3ccc4[nH]ncc4c3)c2c1=O)NCC(F)(F)F [Example 1, 2-[8-(1H-indazol-5-ylamino)-1-oxo-2-isoquinolyl]-N-(2,2,2-trifluoroethyl)acetamide] | 0.01 to 0.1 | ≥ 1 |
| O=C(Cn1ccc2cccc(Nc3ccc4cn[nH]c4c3)c2c1=O)NCC(F)(F)F [Example 2] | 0.01 to 0.1 | ≥ 1 |
| Cn1ncc2cc(Nc3cccc4ccn(CC(=O)NCC(F)(F)F)c(=O)c34)ccc21 [Example 3, 2-[8-[(1-methylindazol-5-yl)amino]-1-oxo-2-isoquinolyl]-N-(2,2,2-trifluoroethyl)acetamide] | 0.01 to 0.1 | 0.1 to 1 |
| Cc1ccc(Nc2ccc3c(cnn3C)c2)c2c(=O)n(CC(=O)NCC(F)(F)F)ccc12 [Example 8, 2-[5-methyl-8-[(1-methylindazol-5-yl)amino]-1-oxo-2-isoquinolyl]-N-(2,2,2-trifluoroethyl)acetamide] | ≥ 1 | ≥ 1 |
| CC(C)CNC(=O)Cn1ccc2cccc(Nc3ccc4c(cnn4C)c3)c2c1=O [Example 9, N-isobutyl-2-[8-[(1-methylindazol-5-yl)amino]-1-oxo-2-isoquinolyl]acetamide] | 0.01 to 0.1 | 0.1 to 1 |
| Cn1ncc2cc(Nc3cccc4ccn(CC(=O)NCC(F)F)c(=O)c34)ccc21 [Example 10] | 0.01 to 0.1 | 0.1 to 1 |
| Cn1ncc2cc(Nc3cccc4ccn(CC(=O)N5CCOCC5)c(=O)c34)ccc21 [Example 11] | 0.1 to 1 | 0.1 to 1 |
| CC(NC(=O)Cn1ccc2cccc(Nc3ccc4c(cnn4C)c3)c2c1=O)C(F)(F)F (centres unmarked) [Example 12, 2-[8-[(1-methylindazol-5-y)amino]-1-oxo-2-isoquinolyl]-N-(2,2,2-trifluoro-1-methyl-ethyl)acetamide] | 0.01 to 0.1 | 0.01 to 0.1 |
| CN1CCN(C(=O)Cn2ccc3cccc(Nc4ccc5c(cnn5C)c4)c3c2=O)CC1 [Example 13, 8-[(1-methylindazol-5-yl)amino]-2-[2-(4-methylpiperazin-1-yl)-2-oxo-ethyl]isoquinolin-1-one] | ≥ 1 | ≥ 1 |
| CCNC(=O)Cn1ccc2cccc(Nc3ccc4c(cnn4C)c3)c2c1=O [Example 14, N-ethyl-2-[8-[(1-methylindazol-5-yl)amino]-1-oxo-2-isoquinolyl]acetamide] | 0.1 to 1 | ≥ 1 |
| Cn1ncc2cc(Nc3cccc4ccn(CC(=O)NC5CCOCC5)c(=O)c34)ccc21 [Example 15, 2-[8-[(1-methylindazol-5-yl)amino]-1-oxo-2-isoquinolyl]-N-tetrahydropyran-4-yl-acetamide] | 0.1 to 1 | ≥ 1 |
| Cn1ncc2cc(Nc3cccc4ccn(CC(=O)NCC5CC5)c(=O)c34)ccc21 [Example 16] | 0.01 to 0.1 | 0.1 to 1 |
| Cn1ncc2cc(Nc3cccc4ccn(CC(=O)NC5CC5)c(=O)c34)ccc21 [Example 17, N-cyclopropyl-2-[8-[(1-methylindazol-5-yl)amino]-1-oxo-2-isoquinolyl]acetamide] | 0.1 to 1 | ≥ 1 |
| CN1CCC(NC(=O)Cn2ccc3cccc(Nc4ccc5c(cnn5C)c4)c3c2=O)CC1 [Example 18, 2-[8-[(1-methylindazol-5-y)amino]-1-oxo-2-isoquinolyl]-N-(1-methyl-4-piperidyl)acetamide] | ≥ 1 | ≥ 1 |
| C[C@H](NC(=O)Cn1ccc2cccc(Nc3ccc4c(cnn4C)c3)c2c1=O)C(F)(F)F [Example 19, 2-[8-[(1-methylindazol-5-yl)amino]-1-oxo-2-isoquinolyl]-N-[(1S)-2,2,2-trifluoro-1-methyl-ethyl]acetamide] | < 0.01 | 0.01 to 0.1 |
| C[C@@H](NC(=O)Cn1ccc2cccc(Nc3ccc4c(cnn4C)c3)c2c1=O)C(F)(F)F [Example 20, 2-[8-[(1-methylindazol-5-yl)amino]-1-oxo-2-isoquinolyl]-N-[(1R)-2,2,2-trifluoro-1-methyl-ethyl]acetamide] | 0.1 to 1 | 0.1 to 1 |
